{"source": "patent US20170266182A1", "about": "“Treatment of IgG-Immune Complex-Mediated Organ Damage” (The Brigham and Women's Hospital, Inc., priority 2014, published 2017)", "key": {"FcγRIIA [1]": {"test_system": "FcγRIIA", "assay": "Immobilized immune complex (IC)-induced ROS generation in FcγRIIA+/γ-/- mouse bone marrow neutrophils (high-throughput screen)", "assay_type": "cell-based", "settings": "for ROS RLU ratio: compound at 1.1 μM, mouse BMN ROS induced by immobilized IC", "procedure": "Screen of 8,483 compounds was done in collaboration with the Institute of Chemistry and Cell Biology Screening facility at Harvard Medical School (ICCB/Longwood). Each compound was dissolved in DMSO at a concentration of […]. For the primary screen, wells were coated with immune complexes as follows: 0.1 mg/mL poly-L-lysine (Sigma) followed by 2.5% glutaraldehyde were dispensed onto 384-well format black plate (Corning), and the plate was washed once with DDW and twice with PBS, incubated with 100 μL 1 mg/ml bovine serum albumin (BSA) followed by 100 μL 40 μg/mL rabbit anti-BSA antibody to generate in situ immune complexes (IC). Mature murine neutrophils isolated from the bone marrow of FcγRIIA+/γ^-/- mice as previously described, were suspended in 100 uM homovanillic acid/5 U/ml peroxidase IV (Sigma)/1 mM EDTA/HBSS (Thermo) assay solution (pH 7.5) and 3×10^4 cells in 30 μL were loaded per well into a 384-well format plate using a Wellmate automated dispenser (Thermo Scientific). Immediately after dispensing cells, ICCB library compounds dissolved in 33 nL DMSO were dispensed into wells using a Compound Transfer Robot (Epson). The plates were placed in a humidified incubator at 37 C for 60 mins and then fluorescence levels were read out at Ex/Em 321/421 nm with Envision2 (PerkinElmer). PP2 (Sigma), a Src inhibitor known to down-regulate FcγRIIA signal, and DMSO were used as positive and negative control, respectively. All the experiments were performed in duplicate.\nAn automated high-throughput drug screen in primary neutrophils from mice expressing FcγRIIA on neutrophils and lacking all their endogenous activating murine FcγRs (FcγRIIA^+/γ^-/-) was established to identify compounds that inhibit the activity of FcγRIIA. Immune complex (IC)-induced reactive oxygen species (ROS) generation served as our read-out of FcγRIIA activity. An appropriate positive (PP2, an inhibitor of the FcγR proximal Src-family kinase) and negative (DMSO, vehicle) control was included in the assay. The screen of 8,483 compounds, used at 10 μM in DMSO, yielded 84 hits (1% hit rate) that were defined as those that have an inhibitory potential that is ≧95% of PP2 (FIG. 1A). Of the 30 compounds cherry picked for a secondary screen, ten compounds were identified as having an ability to inhibit neutrophil FcyRIIA induced ROS generation at even lower concentrations (i.e., 1.1 μM or less) (Table 1)."}, "[2]": {"settings": "mice, gavage; cited from earlier work"}, "[3]": {"test_system": "FcγRIIA+/γ-/-/Mac-1-/- mice", "assay": "Human lupus serum induced kidney injury model", "assay_type": "in vivo, mouse", "procedure": "Human serum samples were obtained from the Lupus Clinic at the Beth Israel Deaconess Medical Center from patients with SLE diagnosed according to the classification criteria of the American College of Rheumatology as previously described^13. Informed consent was obtained from all patients and healthy donors under a Beth Israel Deaconess Medical Center Institutional Review Board-approved protocol. FcγRIIA+/γ^-/-/Mac1-mice were injected s.c. in both flanks with 2.5 μg human IgG (Jackson ImmunoResearch Laboratories) in CFA (Thermo Scientific and Difco) on day-3. On days 0 and 2, 200 μl sterile serum was injected i.v. The mice were given an oral administration of Bosutinib (150 mg/kg) or a vehicle solution every 24 hrs from day 0 to 14. Spot urine samples and peripheral blood were collected at indicated time points after human serum injection. Both kidneys from euthanized mice were harvested for histological analysis at day 10 or 14. […]"}, "neutrophils": {"test_system": "neutrophils", "assay": "Cell viability by Annexin V and propium iodide", "assay_type": "cell-based", "settings": "range of concentrations"}, "FcγRIIA [4]": {"test_system": "FcγRIIA", "assay": "FcγRIIA cross-linking induced ROS generation in FcγRIIA+/γ-/- mouse BMNs (luminol)", "assay_type": "cell-based", "settings": "100 nM, FIG. 4A", "procedure": "10^6 BMNs were suspended in PBS without Ca^2+/Mg^2+, and then incubated with 10 μg/ml mouse anti-hFcγRIIa (clone IV.3; StemCell Technologies) on ice for 30 minutes. After washing in PBS, cells were incubated with or without 500 ng/ml mGM-CSF (BioLegend) for 30 minutes. After pretreated with Bosutinib at indicated concentrations or DMSO at 37 C for 30 minutes, luminol (50 μM) in PBS with Ca^2+/Mg^2+ was added, followed immediately by the addition of goat anti-mouse F(ab′)2 (36 μg/ml; Jackson ImmunoResearch). ROS generation (expressed in relative light units) was continuously monitored over time using a 6-channel bioluminat LB-953 luminometer (Berthold). For human PMNs, 5×10^5 cells were analyzed without GM-CSF pretreatment."}}, "note": "pIC50: −log10 of the molar value.", "data": [{"smiles": "Cc1n[nH]c2ccc(-c3cncc(OC[C@@H](N)Cc4c[nH]c5ccccc45)c3)cc12", "note": "[A-443654]", "values": [{"measurement": "ROS RLU ratio", "setting": "FcγRIIA [1]", "result": 0.266}]}, {"smiles": "COc1cc(Nc2c(C#N)cnc3cc(OCCCN4CCN(C)CC4)c(OC)cc23)c(Cl)cc1Cl", "note": "[Bosutinib]", "values": [{"measurement": "Time of peak blood concentration", "setting": "[2]", "result": "2 to 4", "unit": "h"}, {"measurement": "Total leukocyte and neutrophil counts versus vehicle", "setting": "[3]; hemocytometric analysis, day 14", "result": "comparable"}, {"measurement": "Hb", "setting": "[3]; peripheral blood, day 14, AVE", "result": 7.98, "unit": "g/dL"}, {"measurement": "Neu %", "setting": "[3]; peripheral blood, day 14, AVE", "result": 25.64, "unit": "%"}, {"measurement": "Neu total", "setting": "[3]; peripheral blood, day 14, AVE", "result": 0.7506, "unit": "K/ul"}, {"measurement": "Plt total", "setting": "[3]; peripheral blood, day 14, AVE", "result": 949.8, "unit": "K/ul"}, {"measurement": "RBC", "setting": "[3]; peripheral blood, day 14, AVE", "result": 7.98, "unit": "M/ul"}, {"measurement": "WBC total", "setting": "[3]; peripheral blood, day 14, AVE", "result": 2.656, "unit": "K/ul"}, {"measurement": "Cell viability", "setting": "neutrophils", "result": "did not affect cell viability"}, {"measurement": "ROS RLU ratio", "setting": "FcγRIIA [1]", "result": 0.033}, {"measurement": "pIC50", "setting": "FcγRIIA [1]; mouse BMNs, FIG. 1C", "result": "~7.30"}]}, {"smiles": "CN(C)CCCn1cc(C2=C(c3c[nH]c4ccccc34)C(=O)NC2=O)c2ccccc21", "note": "[GF109203X]", "values": [{"measurement": "ROS RLU ratio", "setting": "FcγRIIA [1]", "result": 0.338}]}, {"smiles": "Cc1cn(-c2cc(NC(=O)c3ccc(C)c(Nc4nccc(-c5cccnc5)n4)c3)cc(C(F)(F)F)c2)cn1", "note": "[Nilotinib]", "values": [{"measurement": "Neutrophil ROS generation induced by FcγRIIA cross linking", "setting": "FcγRIIA [4]", "result": "reduced"}, {"measurement": "Potency compared to Bosutinib in FcγRIIA cross linking ROS", "setting": "FcγRIIA [4]", "result": "lower"}]}, {"smiles": "CN(c1ccccc1CNc1nc(Nc2ccc3c(c2)CC(=O)N3)ncc1C(F)(F)F)S(C)(=O)=O", "note": "[PF431396]", "values": [{"measurement": "ROS RLU ratio", "setting": "FcγRIIA [1]", "result": 0.301}]}, {"smiles": "Cn1cc(C2=C(c3cn(CCCSC(=N)N)c4ccccc34)C(=O)NC2=O)c2ccccc21", "note": "[Ro 31-8220]", "values": [{"measurement": "ROS RLU ratio", "setting": "FcγRIIA [1]", "result": 0.778}]}]}
